Results as given in EP0043274A2, “Antithrombotic treatment” (priority 1980, dated 1982).
“And” between values parts separate entries of the source, which are not always exact repeats. Equal values may be shown once. Read-outs that look alike come from different tables or passages of the source.

Key:
[1] = target: T1, F X (Homo sapiens, UniProt P00742); experiment: Coagulation factor assay (Biggs): Factor X; assay type: biochemical; conditions: for inhibition of coagulation factor X: in vitro; for F X (%): U.S.P. grade, control 78
T1 construct: from tissue; host or cells: human plasma
T1 sequence (P00742 41-488): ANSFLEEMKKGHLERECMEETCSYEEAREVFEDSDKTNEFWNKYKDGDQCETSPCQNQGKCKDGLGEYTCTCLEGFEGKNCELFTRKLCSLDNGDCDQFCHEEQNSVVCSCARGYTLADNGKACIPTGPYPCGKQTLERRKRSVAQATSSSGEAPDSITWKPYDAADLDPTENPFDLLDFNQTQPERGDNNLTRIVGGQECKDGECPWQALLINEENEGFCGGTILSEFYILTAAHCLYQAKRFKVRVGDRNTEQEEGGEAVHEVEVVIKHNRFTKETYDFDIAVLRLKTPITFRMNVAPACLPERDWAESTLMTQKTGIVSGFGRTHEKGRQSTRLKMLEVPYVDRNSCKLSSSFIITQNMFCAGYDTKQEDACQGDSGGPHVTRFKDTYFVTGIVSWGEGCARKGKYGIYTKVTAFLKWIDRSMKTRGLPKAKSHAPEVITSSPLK
Description: (§1) The effect of U.S.P. grade sodium bisulfite on blood coagulation factors is evaluated by standard procedures (Biggs) and the results are shown in Table III below.
(§2) References for PT, PTT, and assays of all the coagulation factors can be found in a standard textbook, entitled "Human Blood Coagulation, Haemostasis and Thrombosis", edited by Rosemary Biggs, published by Blackwell Scientific Publications, Oxford, England (2nd edition), pages 670-705, 1976.

[2] = target: T2, F XII (Homo sapiens, UniProt P00748); experiment: Coagulation factor assay (Biggs): Factor XII; assay type: biochemical; conditions: for inhibition of coagulation factor XII: in vitro; for F XII (%): U.S.P. grade, control 86
T2 construct: from tissue; host or cells: human plasma
T2 sequence (P00748 20-615): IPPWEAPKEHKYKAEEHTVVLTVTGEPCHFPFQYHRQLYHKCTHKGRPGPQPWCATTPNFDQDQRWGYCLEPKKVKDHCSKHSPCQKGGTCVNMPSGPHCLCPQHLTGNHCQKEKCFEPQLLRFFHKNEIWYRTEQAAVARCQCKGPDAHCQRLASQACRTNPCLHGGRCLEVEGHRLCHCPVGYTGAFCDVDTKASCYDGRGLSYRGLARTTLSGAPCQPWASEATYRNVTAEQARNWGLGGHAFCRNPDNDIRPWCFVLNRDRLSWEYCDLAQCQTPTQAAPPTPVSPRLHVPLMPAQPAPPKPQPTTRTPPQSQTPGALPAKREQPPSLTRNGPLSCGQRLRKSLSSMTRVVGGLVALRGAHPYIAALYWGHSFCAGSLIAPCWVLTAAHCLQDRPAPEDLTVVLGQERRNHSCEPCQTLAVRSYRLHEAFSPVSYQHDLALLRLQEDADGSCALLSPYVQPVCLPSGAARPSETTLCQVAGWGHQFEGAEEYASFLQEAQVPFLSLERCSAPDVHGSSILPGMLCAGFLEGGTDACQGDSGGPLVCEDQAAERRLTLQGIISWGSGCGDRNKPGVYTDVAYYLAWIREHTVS
Description: as §1, §2

[3] = system: thrombus formation in the jugular vein; experiment: I 125 fibrinogen technique, damaged jugular vein (venous thrombosis), continuous infusion; assay type: in vivo, rabbits; conditions: for radioactivity (I 125 fibrinogen) in damaged jugular vein of saline control rabbit relative to treated rabbit / thrombus formation in the jugular vein (conclusion in words): continuous infusion for five hours; for mortality of infused rabbits: continuous infusion
Description: The anti venous thrombotic effect of sodium bisulfite is evaluated in rabbits by using I ^125 fibrinogen technique as described in an article in "Archives of Surgery" Vol. 104, pg. 152 (1972).
The rabbit was continuously infused with aqueous sodium bisulfite solution at the rate of […]. (5.154 gram per hour) (animal body weight 2.3 kg) for a time of five hours. After 5 hours, the animal was sacrificed and the radioactive fibrinogen accumulated in the damaged jugular vein was determined. The radioactivity on the contra-lateral (undamaged) jugular vein was also determined to serve as a control. Concurrently, another rabbit had experienced the same procedure but received only a standard sodium chloride solution as a control. The rabbit from the normal saline solution has seven times as much radioactivity as his counterpart infused with sodium bisulfite.
Two jugular veins on a normal, healthy rabbit are exposed and one of the veins is systematically damaged by clamping in two longitudinally spaced places. The rabbit is then continuously infused with aqueous sodium formaldehyde bisulfite at the rate of […] (5.154 gram per hour) (animal body weight 2.3 kg). The rabbit is then injected with fibrinogen labeled with I^125. After 5 hours, the damaged jugular vein is evaluated for radioacive count with a Geiger counter.
This iodine 125 evaluation technique is described by Kakkar in Archieves of Surgery, Vol. 104, pg. 152 (1972) and by Kelton, J.G. et al, Journal of Clinical Investigation, Vol. 62, pgs. 892-895, (1978). […] Other rabbits, similarly evaluated, died, apparently because of overdose by the infustion technique.

[4] = system: rabbit plasma; experiment: Blood coagulation tests (PT, PTT, coagulation factors) in vitro; assay type: biochemical; conditions: for PT and PTT (effect in words): rabbit plasma in vitro, 0.5 mg/ml
Source text: The alkali metalbisulfites, sodium and potassium, and ammonium bisulfite are found to prolong PT and PTT in a dose-related fashion.
The Solution I is found to prolong PT and PTT in a dose related fashion. […] The agent is active in inhibiting various coagulation factors, including factors VII, IX, X, XI, and XII.

[5] = system: human plasma; assay type: biochemical
[6] = target: T3, F VII (Homo sapiens, UniProt P08709); experiment: Coagulation factor assay (Biggs): Factor VII; assay type: biochemical; conditions: for inhibition of coagulation factor VII: in vitro; for F VII (%): U.S.P. grade, control 73
T3 construct: from tissue; host or cells: human plasma
T3 sequence (P08709 61-466): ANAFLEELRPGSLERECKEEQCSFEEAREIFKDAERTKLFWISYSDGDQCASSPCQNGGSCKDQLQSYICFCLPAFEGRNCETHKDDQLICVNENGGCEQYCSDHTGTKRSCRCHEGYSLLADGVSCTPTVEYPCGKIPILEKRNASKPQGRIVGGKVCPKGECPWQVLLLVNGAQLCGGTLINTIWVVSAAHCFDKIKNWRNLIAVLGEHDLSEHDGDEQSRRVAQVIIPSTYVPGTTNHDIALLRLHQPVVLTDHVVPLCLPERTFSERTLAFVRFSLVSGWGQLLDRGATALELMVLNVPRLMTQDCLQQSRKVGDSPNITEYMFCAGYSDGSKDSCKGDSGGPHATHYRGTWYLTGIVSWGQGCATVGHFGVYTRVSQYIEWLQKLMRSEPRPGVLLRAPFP
Description: as §1, §2

[7] = system: human plasma; assay type: biochemical; remark: listed apart in the source
[8] = target: T4, F XI (Homo sapiens, UniProt P03951); experiment: Coagulation factor assay (Biggs): Factor XI; assay type: biochemical; conditions: for inhibition of coagulation factor XI: in vitro; for F XI (%): U.S.P. grade, control 117
T4 construct: from tissue; host or cells: human plasma
T4 sequence (P03951 19-625): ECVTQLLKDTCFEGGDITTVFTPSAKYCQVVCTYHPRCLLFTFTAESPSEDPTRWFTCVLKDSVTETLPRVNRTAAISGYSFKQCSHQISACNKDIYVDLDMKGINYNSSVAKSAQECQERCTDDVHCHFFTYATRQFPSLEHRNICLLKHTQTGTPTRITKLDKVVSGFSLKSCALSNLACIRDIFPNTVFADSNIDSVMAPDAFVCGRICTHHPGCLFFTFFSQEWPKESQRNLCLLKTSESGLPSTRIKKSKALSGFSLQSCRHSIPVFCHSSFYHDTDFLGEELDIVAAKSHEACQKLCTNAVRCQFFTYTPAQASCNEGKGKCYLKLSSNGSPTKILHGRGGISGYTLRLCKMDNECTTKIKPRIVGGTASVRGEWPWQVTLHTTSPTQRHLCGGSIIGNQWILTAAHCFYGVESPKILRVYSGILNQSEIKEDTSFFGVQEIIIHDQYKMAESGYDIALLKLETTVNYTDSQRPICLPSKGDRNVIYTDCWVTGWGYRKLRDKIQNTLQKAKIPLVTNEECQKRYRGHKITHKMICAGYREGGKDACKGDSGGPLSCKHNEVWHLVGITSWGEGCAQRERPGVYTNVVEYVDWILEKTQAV
Description: as §1, §2

[9] = target: T5, F IX (Homo sapiens, UniProt P00740); experiment: Coagulation factor assay (Biggs): Factor IX; assay type: biochemical; conditions: for inhibition of coagulation factor IX: in vitro; for Factor IX (%): single experiment, control 50; for F IX (%): U.S.P. grade, control 66
T5 construct: from tissue; host or cells: human plasma
T5 sequence (P00740 47-461): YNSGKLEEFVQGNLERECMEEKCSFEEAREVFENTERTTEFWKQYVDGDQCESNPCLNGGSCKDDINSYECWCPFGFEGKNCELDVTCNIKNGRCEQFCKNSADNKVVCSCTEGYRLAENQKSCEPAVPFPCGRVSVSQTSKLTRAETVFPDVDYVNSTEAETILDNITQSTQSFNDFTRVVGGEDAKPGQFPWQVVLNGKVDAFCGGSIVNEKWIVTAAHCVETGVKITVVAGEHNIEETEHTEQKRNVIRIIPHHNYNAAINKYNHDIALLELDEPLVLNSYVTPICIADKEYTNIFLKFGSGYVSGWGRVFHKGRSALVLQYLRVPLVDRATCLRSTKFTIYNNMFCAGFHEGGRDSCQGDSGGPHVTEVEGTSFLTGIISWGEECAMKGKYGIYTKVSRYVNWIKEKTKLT
Description: as §1, §2

CCN(CC)CC.O=S(O)O [TRIETHYL AMINE BISULFITE, triethyl amine bisulfite]
inhibition of coagulation factor X [1]: active
inhibition of coagulation factor XII [2]: active
radioactivity (I 125 fibrinogen) in damaged jugular vein of saline control rabbit relative to treated rabbit [3]: seven times
thrombus formation in the jugular vein (conclusion in words) [3]: definite positive antithrombotic effect
PT and PTT (effect in words) [4]: significantly prolong
MEAN LSD (PT) [5]: 21.3 ± 3.0 s
PT (effect in words) [5]: significantly prolong
PT(Sec) […]. 1 [5]: 23.3 s
PT(Sec) […]. 2 [5]: 25.3 s
PT(Sec) […]. 3 [5]: 18.5 s
PT(Sec) […]. 4 [5]: 18.9 s
PT(Sec) […].5 [5]: 20.4 s
inhibition of coagulation factor VII [6]: active
MEAN LSD (PTT) [7]: 73.1 ± 8.3 s
PTT (effect in words) [7]: significantly prolong
PTT(Sec) […]. 1 [7]: 24.7 s
PTT(Sec) […]. 2 [7]: 86.3 s
PTT(Sec) […]. 3 [7]: 64.2 s
PTT(Sec) […]. 4 [7]: 71.2 s
PTT(Sec) […].5 [7]: 68.9 s
inhibition of coagulation factor XI [8]: active
inhibition of coagulation factor IX [9]: active
Factor IX (%) [9]: 14%

C[N+](C)(C)C [Tetramethyl-ammonium bisulfite]
inhibition of coagulation factor X [1]: active
inhibition of coagulation factor XII [2]: active
mortality of infused rabbits [3]: death of the rabbit
PT and PTT (effect in words) [4]: significantly prolong
PT sec. [5]: 21.7 s
PT (effect in words) ([5]; in vitro, 0.5 mg/ml): significantly prolong
inhibition of coagulation factor VII [6]: active
PTT (effect in words) ([7]; in vitro, 0.5 mg/ml): significantly prolong
inhibition of coagulation factor XI [8]: active
inhibition of coagulation factor IX [9]: active
Factor IX (%) [9]: 12.5%

Sodium bisulfite
F X (%) ([1]; 0.01 mg/ml): 73%
F X (%) ([1]; 0.05 mg/ml): 68%
F X (%) ([1]; 0.1 mg/ml): 66%
effect on Factor X ([1]; 0.5 mg per ml): significant inhibitory effect
F X (%) ([1]; 0.5 mg/ml): 31%
F X (%) ([1]; 1.0 mg/ml): 11%
F X (%) ([1]; 5.0 mg/ml): 3%
F XII (%) ([2]; 0.01 mg/ml): 94%
F XII (%) ([2]; 0.05 mg/ml): 87%
F XII (%) ([2]; 0.1 mg/ml): 79%
effect on Factor XII ([2]; 0.5 mg per ml): significant inhibitory effect
F XII (%) ([2]; 0.5 mg/ml): 17%
F XII (%) ([2]; 1.0 mg/ml): 3%
F XII (%) ([2]; 5.0 mg/ml): <1%
mortality of infused rabbits [3]: died
radioactivity (I 125 fibrinogen) in damaged jugular vein of saline control rabbit relative to treated rabbit [3]: seven times
thrombus formation in the jugular vein (conclusion in words) [3]: definite positive effect of decreasing thrombus formation
PT and PTT (effect in words) [4]: significantly prolong
blood coagulation factors ([4]; rabbit plasma, compared with human plasma): not as sensitive
PT [5]: 22.42 s
PT(seconds) Exp. 1 A [5]: 25.5 s and 22.1 s
PT(seconds) Exp. 2 A [5]: 23.2 s
PT ([5]; 0.01 mg/ml, U.S.P. grade, control 34.67): 33.37 s
PT ([5]; 0.05 mg/ml, U.S.P. grade, control 34.67): 34.00 s
PT ([5]; 0.1 mg/ml, U.S.P. grade, control 34.67): 34.85 s
PT ([5]; 0.5 mg/ml, U.S.P. grade, control 34.67): 42.73 s
PT ([5]; 1.0 mg/ml, U.S.P. grade, control 34.67): 85.33 s
PT ([5]; 5.0 mg/ml, U.S.P. grade, control 34.67): >150 s
PT ([5]; coded agents 0.5mg/ml, […], control 12.92): 23.06 s
PT (effect in words) ([5]; in vitro, 0.5 mg/ml): significantly prolong
F VII (%) ([6]; 0.01 mg/ml): 67%
F VII (%) ([6]; 0.05 mg/ml): 57%
F VII (%) ([6]; 0.1 mg/ml): 51%
effect on Factor VII ([6]; 0.5 mg per ml): significant inhibitory effect
F VII (%) ([6]; 0.5 mg/ml): 23%
F VII (%) ([6]; 1.0 mg/ml): 8%
F VII (%) ([6]; 5.0 mg/ml): 1%
PTT(seconds) Exp. 1 A [7]: 128.2 s
PTT ([7]; 0.01 mg/ml, U.S.P. grade, control 12.20): 12.33 s
PTT ([7]; 0.05 mg/ml, U.S.P. grade, control 12.20): 12.43 s
PTT ([7]; 0.1 mg/ml, U.S.P. grade, control 12.20): 12.85 s
PTT ([7]; 0.5 mg/ml, U.S.P. grade, control 12.20): 15.43 s
PTT ([7]; 0.5 mg/ml, two different days, control 42.6 / 42.10): 120.35 s
PTT ([7]; 1.0 mg/ml, U.S.P. grade, control 12.20): 22.63 s
PTT ([7]; 5.0 mg/ml, U.S.P. grade, control 12.20): >150 s
PTT(seconds) Exp. 2 A ([7]; Active Agent 0.5/ml, test sequences A and B, control 50.5 (A), 44.5 (B)): 162.6 s and 121.9 s
PTT ([7]; coded agents 0.5mg/ml, […], control 43.38): 114.80 s
PTT (effect in words) ([7]; in vitro, 0.5 mg/ml): significantly prolong
F XI (%) ([8]; 0.01 mg/ml): 98%
F XI (%) ([8]; 0.05 mg/ml): 81%
F XI (%) ([8]; 0.1 mg/ml): 58%
effect on Factor XI ([8]; 0.5 mg per ml): significant inhibitory effect
F XI (%) ([8]; 0.5 mg/ml): 27%
F XI (%) ([8]; 1.0 mg/ml): 4%
F XI (%) ([8]; 5.0 mg/ml): <1%
F IX (%) ([9]; 0.01 mg/ml): 60%
F IX (%) ([9]; 0.05 mg/ml): 52%
F IX (%) ([9]; 0.1 mg/ml): 56%
effect on Factor IX ([9]; 0.5 mg per ml): significant inhibitory effect
F IX (%) ([9]; 0.5 mg/ml): 4%
F IX (%) ([9]; 1.0 mg/ml): 3%
F IX (%) ([9]; 5.0 mg/ml): <1%
